# Test results from patent publication US5051419A, “Prevention or elimination of mycoplasma contamination of animal or plant cell cultures” (Dainippon Pharmaceutical Co., Ltd., priority 1988, dated 1991).
# Columns and labels:
# A. laidlawii PG8 = test: Anti-mycoplasmal activity (MIC), agar-dilution method; type: cell-based; conditions: Acholeplasma laidlawii; agar dilution; A. laidlawii PG8; read-out: MIC
# Experimental: (§1) The minimum growth inhibitory concentrations (MIC; μg/ml) of the test chemicals were measured by the agar-dilution method.
# (§2) (1) Preparation of a mycoplasma suspension for inoculation
# (§3) A stored frozen suspension of mycoplasma (0.2 to 0.3 ml) was inoculated in 2 to 3 ml of a preculture medium to be described later. It was serially diluted tenfold until the dilution ratio reached 10,000 times. These diluted solutions were cultivated at 37° C. for 2 to 7 days. A culture having the highest dilution ratio was selected from those cultures in which a color change of the media was noted as a result of mycoplasma growth. It was diluted to 100 times with the preculture medium to prepare a mycoplasma suspension for inoculation.
# (§4) The following preculture media were used.
# For Mycoplasma pneumoniae and Acholeplasma laidlawii, Chanock liquid medium containing 0.5% glucose (pH 7.8) [Library of Bacteriology 2, "Procedures for Isolation and Identification of Human, Animal and Plant Mycoplasmas", edited by Japanese Society for Bacteriology, page 8 (1982), Saikon Publishing Co.] was used.
# (§5) (2) Preparation of agar plates containing the test chemicals
# (§6) A 1,000 μg/ml aqueous solution of each test chemical was prepared (a difficultly-soluble chemical was dissolved by adding an equimolar amount of sodium hydroxide; the same applies hereinafter). The solution was used as a base solution and its twofold serial dilutions were prepared. The diluted solutions were pipetted on plastic petri dishes each in an amount of 1 ml. The Chanock agar medium (for Mycoplasma hyorhinis, 0.5% mucin was further added) described at page 9 of the above cited "Procedures for Isolation and Identification of Human, Animal and Plant Mycoplasmas" was heated and kept at 55° C. and put in an amount of 9 ml in each of the petri dishes containing the test chemicals and fully mixed with the test chemicals to prepare agar plates containing the test chemicals.
# (§7) The mycoplasma suspension for inoculation prepared by the procedure described in section (1) was inoculated in an amount of about 3 microliters on each of the chemical-containing agar plates by means of a Cathra-replicator (3 mm pin). The plates on which Mycoplasma pneumoniae, Mycoplasma arginini, and Acholeplasma laidlawii and Mycoplasma hyorhinis were inoculated were tightly packed in a plastic bag together with the plasic petri dishes including water-immersed absorbent cotton. Mycoplasma pneumoniae was aerobically cultivated at 37° C. under highly humid conditions for 7 days; and Mycoplasma arginini and Acholeplasma laidlawii, for 2 days. The other mycoplasma species were cultivated anaerobically for 2 days by using a GasPak anaerobic system (BBL). After the cultivation, growth of mycoplasma were observed under an OLYMPUS microscope (20-100 X). The lowest concentration of the test chemical at which no growth of mycoplasma was noted is defined as MIC.
# M. arginini G-230 = test: Activity of eliminating artificially contaminated mycoplasma from L-929 cells; type: cell-based, Mycoplasma arginini
# Experimental: (§8) Animal cells, experimentally contaminated by mycoplasma, were cultivated for 4 days in a medium containing the test chemical and then sub-cultivated in a medium to which the test chemical was not added in order to determine whether the mycoplasma re-grew (re-contamination).
# (§9) (1) Preparation of mycoplasma-contaminated cells
# (§10) The mycoplasmas described in Table 3 were each pre-cultivated as in Test Example 1, (1). Two milliliters of the cultures were centifuged at 1,500×g for 30 minutes to separate the mycoplasmas. The isolated mycoplasmas were suspended in 2 ml of 10%-FBS-MEM medium (Eagle's minimum essential medium supplemented with 10% fetal bovine serum and 100 U/ml of penicillin G).
# (§11) Separately, mouse fibroblast cells L-929 was suspended in 10%-FBS-MEM medium so that their density became 2.5×10^4 /ml. Four milliliters of the suspension was put in a petri dish (diameter 6 cm) for tissue culture including two circular cover glasses (diameter 1.8 cm), and then 1 ml of the mycoplasma suspension described above was added. The mixture was incubated at 37° C. in 5% CO2 humidified atmosphere for 3 days, and then sub-cultivated twice in order to obtain mycoplasma-contaminated cells. Mycoplasma-contamination was confirmed by the highly specific DNA-fluorochromic staining method (the above cited "Procedures for Isolation and identification of Human, Animal and Plant Mycoplasmas", pages 95-97).
# (§12) (2) Experiment of eliminating mycoplasma contamination
# (§13) Mycoplasma-contaminated L-929 cells were cultivated as described in the preceding section. A 1,000 μg/ml aqueous solution of a test chemical was prepared, and diluted to predetermined concentrations with Eagle's minimum essential medium. The diluted solutions were added to the culture medium. Two petri dishes were used for each concentration of the test chemical, and two circular cover glasses were put in one of them for examination of mycoplasma. No cover glass was put in the other petri dish, and it was used for subcultivation. Cultivation in the test chemical-containing medium was carried out for 4 days, and thereafter, the cultivation was continued for 3 weeks in a drug-free medium. Medium replacement was effected every 3 to 4 days, and subcultivation was carried out once a week. Examination for mycoplasma contamination was performed on the 4th and 7th days, and thereafter every week. The mycoplasmas were detected by the highly specific DNA-fluorochromic staining method.
# mycoplasma = test: Activity of eliminating artificially contaminated mycoplasma from L-929 cells, Test Example 3 as a whole; type: cell-based; conditions: for minimal effective concentration: Mycoplasma, L929, 96 h, L-929 cells, 4 days of treatment, read-out: effective concentration for eliminating mycoplasma contamination
# Experimental: as §8, §9, §10, §11, §12, §13
# M. arginini G230 = test: Anti-mycoplasmal activity (MIC), agar-dilution method; type: cell-based, Mycoplasma arginini; conditions: Mycoplasmopsis arginini; agar dilution; M. arginini G230; read-out: MIC
# Experimental: as §1, §2, §3, §4
# For other mycoplasma species, Chanock liquid medium (pH 6.8) containing 0.2% arginine was used.
# as §5, §6, §7
# A. laidlawii PG-8 = test: Activity of eliminating artificially contaminated mycoplasma from L-929 cells; type: cell-based, Acholeplasma laidlawii
# Experimental: as §8, §9, §10, §11, §12, §13
structure (smiles),measurement,setting,value
CC1CN(c2c(F)c(N)c3c(=O)c(C(=O)O)cn(C4CC4)c3c2F)CCN1 (centres unmarked) [Compound 1],MIC,A. laidlawii PG8,0.1 µg/mL
same,mycoplasma elimination,"M. arginini G-230; 0.2 μg/ml, day 0",+
same,mycoplasma elimination,"M. arginini G-230; 0.2 μg/ml, day 4",+
same,mycoplasma elimination,"M. arginini G-230; 0.2 μg/ml, day 7",+
same,mycoplasma elimination,"M. arginini G-230; 0.2 μg/ml, day 14",+
same,mycoplasma elimination,"M. arginini G-230; 0.2 μg/ml, day 28",+
same,mycoplasma elimination,"M. arginini G-230; 0.39 μg/ml, day 0",+
same,mycoplasma elimination,"M. arginini G-230; 0.39 μg/ml, day 4",-
same,mycoplasma elimination,"M. arginini G-230; 0.39 μg/ml, day 7",-
same,mycoplasma elimination,"M. arginini G-230; 0.39 μg/ml, day 14",-
same,mycoplasma elimination,"M. arginini G-230; 0.39 μg/ml, day 28",-
same,minimal effective concentration,mycoplasma; both species,0.39 µg/mL
same,activity of eliminating mycoplasma contamination,mycoplasma; in words,also showed the activity of eliminating mycoplasma contamination
same,effective concentration relative to compound A,mycoplasma; in words,twice that of compound A
same,MIC,M. arginini G230,0.1 µg/mL
same,mycoplasma elimination,"A. laidlawii PG-8; 0.2 μg/ml, day 0",+
same,mycoplasma elimination,"A. laidlawii PG-8; 0.2 μg/ml, day 4",+
same,mycoplasma elimination,"A. laidlawii PG-8; 0.2 μg/ml, day 7",+
same,mycoplasma elimination,"A. laidlawii PG-8; 0.2 μg/ml, day 14",+
same,mycoplasma elimination,"A. laidlawii PG-8; 0.2 μg/ml, day 28",+
same,mycoplasma elimination,"A. laidlawii PG-8; 0.39 μg/ml, day 0",+
same,mycoplasma elimination,"A. laidlawii PG-8; 0.39 μg/ml, day 4",-
same,mycoplasma elimination,"A. laidlawii PG-8; 0.39 μg/ml, day 7",-
same,mycoplasma elimination,"A. laidlawii PG-8; 0.39 μg/ml, day 14",-
same,mycoplasma elimination,"A. laidlawii PG-8; 0.39 μg/ml, day 28",-
"CN(C)c1ccc(O)c2c1C[C@H]1C[C@H]3[C@H](N(C)C)C(O)=C(C(N)=O)C(=O)[C@@]3(O)C(O)=C1C2=O [Compound 3, minocycline]",MIC,A. laidlawii PG8,0.2 µg/mL
same,mycoplasma elimination,"M. arginini G-230; 12.5 μg/ml, day 0",+
same,mycoplasma elimination,"M. arginini G-230; 12.5 μg/ml, day 4",-
same,mycoplasma elimination,"M. arginini G-230; 12.5 μg/ml, day 7",-
same,mycoplasma elimination,"M. arginini G-230; 12.5 μg/ml, day 14",+
same,mycoplasma elimination,"M. arginini G-230; 12.5 μg/ml, day 28",+
same,elimination of mycoplasma and re-growth after removal,"mycoplasma; 12.5 μg/ml, 4 days, then drug removed, in words","the cells were mycoplasma-negative after 4 days of cultivation, but when the chemical was removed thereafter, re-growth of mycoplasma was observed"
same,MIC,M. arginini G230,0.39 µg/mL
same,mycoplasma elimination,"A. laidlawii PG-8; 12.5 μg/ml, day 0",+
same,mycoplasma elimination,"A. laidlawii PG-8; 12.5 μg/ml, day 4",-
same,mycoplasma elimination,"A. laidlawii PG-8; 12.5 μg/ml, day 7",+
same,mycoplasma elimination,"A. laidlawii PG-8; 12.5 μg/ml, day 14",+
same,mycoplasma elimination,"A. laidlawii PG-8; 12.5 μg/ml, day 28",+
"NCC1CN(c2c(F)c(N)c3c(=O)c(C(=O)O)cn(C4CC4)c3c2F)CCO1 (centres unmarked) [Compound A, 5-amino-7-(2-aminomethylmorpholino)-1-cyclopropyl-6,8-difluoro-1,4-dihydro-4-oxoquinoline-3-carboxylic acid]",MIC,A. laidlawii PG8,0.0125 µg/mL
same,mycoplasma elimination,"M. arginini G-230; 0.1 μg/ml, day 0",+
same,mycoplasma elimination,"M. arginini G-230; 0.1 μg/ml, day 4",+
same,mycoplasma elimination,"M. arginini G-230; 0.1 μg/ml, day 7",+
same,mycoplasma elimination,"M. arginini G-230; 0.1 μg/ml, day 14",+
same,mycoplasma elimination,"M. arginini G-230; 0.1 μg/ml, day 28",+
same,mycoplasma elimination,"M. arginini G-230; 0.2 μg/ml, day 0",+
same,mycoplasma elimination,"M. arginini G-230; 0.2 μg/ml, day 4",-
same,mycoplasma elimination,"M. arginini G-230; 0.2 μg/ml, day 7",-
same,mycoplasma elimination,"M. arginini G-230; 0.2 μg/ml, day 14",-
same,mycoplasma elimination,"M. arginini G-230; 0.2 μg/ml, day 28",-
same,elimination of mycoplasma and re-growth after removal,"mycoplasma; 0.2 μg/ml, both species, in words","gave a mycoplasma negative in 4 days from the start of cultivation, and when thereafter subcultivation was performed in the absence of the compound A, no re-growth of mycoplasmas were noted"
same,minimal effective concentration,mycoplasma; both species,0.2 µg/mL
same,MIC,M. arginini G230,0.05 µg/mL
same,mycoplasma elimination,"A. laidlawii PG-8; 0.1 μg/ml, day 0",+
same,mycoplasma elimination,"A. laidlawii PG-8; 0.1 μg/ml, day 4",-
same,mycoplasma elimination,"A. laidlawii PG-8; 0.1 μg/ml, day 7",+
same,mycoplasma elimination,"A. laidlawii PG-8; 0.1 μg/ml, day 14",+
same,mycoplasma elimination,"A. laidlawii PG-8; 0.1 μg/ml, day 28",+
same,mycoplasma elimination,"A. laidlawii PG-8; 0.2 μg/ml, day 0",+
same,mycoplasma elimination,"A. laidlawii PG-8; 0.2 μg/ml, day 4",-
same,mycoplasma elimination,"A. laidlawii PG-8; 0.2 μg/ml, day 7",-
same,mycoplasma elimination,"A. laidlawii PG-8; 0.2 μg/ml, day 14",-
same,mycoplasma elimination,"A. laidlawii PG-8; 0.2 μg/ml, day 28",-
